Results taken from the NIST ThermoML archive (doi:10.1016/j.jct.2014.07.019).

Assay: xn = mol fraction of the nth substance listed
Settings: 100 kPa, Liquid; for speed of sound: Frequency=3 MHz, Sing-around technique in a fixed-path interferometer; for mass density: Vibrating tube method

CCCCOCC(C)O (stereo not given) [1-butoxy-2-propanol] + CCCCO
Settings | mass density, 293.15 K [kg/m3] | mass density, 298.15 K [kg/m3] | mass density, 303.15 K [kg/m3] | mass density, 308.15 K [kg/m3] | mass density, 313.15 K [kg/m3] | speed of sound, 293.15 K [m/s] | speed of sound, 298.15 K [m/s] | speed of sound, 303.15 K [m/s] | speed of sound, 308.15 K [m/s] | speed of sound, 313.15 K [m/s]
x1 = 0.0519 | 815.814 | 811.979 | 808.09 | 804.168 | 800.279 | 1259.9 | 1243.7 | 1227.1 | 1210.6 | 1193
x1 = 0.0992 | 821.015 | 817.166 | 813.235 | 809.277 | 805.328 | 1262.1 | 1246.1 | 1229.4 | 1212.9 | 1194.8
x1 = 0.1522 | 826.515 | 822.607 | 818.628 | 814.607 | 810.63 | 1264.4 | 1248.7 | 1232 | 1215.4 | 1196.7
x1 = 0.2025 | 831.372 | 827.404 | 823.395 | 819.351 | 815.31 | 1266.4 | 1250.8 | 1234.1 | 1217.4 | 1198.4
x1 = 0.2533 | 835.963 | 831.953 | 827.91 | 823.833 | 819.767 | 1268.2 | 1252.7 | 1235.8 | 1219 | 1199.9
x1 = 0.3031 | 840.187 | 836.14 | 832.063 | 827.949 | 823.842 | 1269.8 | 1254.1 | 1237.2 | 1220.3 | 1201.2
x1 = 0.4039 | 847.844 | 843.734 | 839.592 | 835.411 | 831.226 | 1272.5 | 1256.4 | 1239.4 | 1222.4 | 1203.2
x1 = 0.4992 | 854.333 | 850.165 | 845.969 | 841.732 | 837.498 | 1274.5 | 1258.4 | 1241.2 | 1224 | 1204.8
x1 = 0.6055 | 860.746 | 856.533 | 852.278 | 847.986 | 843.678 | 1276.3 | 1260.1 | 1242.8 | 1225.4 | 1206.2
x1 = 0.7017 | 865.941 | 861.685 | 857.378 | 853.038 | 848.688 | 1277.4 | 1260.8 | 1243.5 | 1226.1 | 1207
x1 = 0.8058 | 871.007 | 866.701 | 862.345 | 857.961 | 853.562 | 1278.3 | 1261.3 | 1243.9 | 1226.4 | 1207.5
x1 = 0.852 | 873.053 | 868.741 | 864.367 | 859.962 | 855.538 | 1278.6 | 1261.3 | 1243.9 | 1226.3 | 1207.5
x1 = 0.8982 | 875.005 | 870.664 | 866.282 | 861.844 | 857.451 | 1278.8 | 1261.3 | 1243.9 | 1226.3 | 1207.5
x1 = 0.9565 | 877.407 | 873.039 | 868.667 | 864.216 | 859.743 | 1279 | 1261.5 | 1243.9 | 1226.3 | 1207.5
x1 = 1 | 879.031 | 874.632 | 870.204 | 865.737 | 861.241 | 1279 | 1260.9 | 1242.9 | 1224.9 | 1207

CCCCOCC(C)O (stereo not given) [1-butoxy-2-propanol] + CCCO
Settings | mass density, 293.15 K [kg/m3] | mass density, 298.15 K [kg/m3] | mass density, 303.15 K [kg/m3] | mass density, 308.15 K [kg/m3] | mass density, 313.15 K [kg/m3] | speed of sound, 293.15 K [m/s] | speed of sound, 298.15 K [m/s] | speed of sound, 303.15 K [m/s] | speed of sound, 308.15 K [m/s] | speed of sound, 313.15 K [m/s]
x1 = 0.0573 | 812.915 | 808.937 | 804.905 | 800.798 | 796.651 | 1230.8 | 1213.8 | 1197.1 | 1180.4 | 1164.1
x1 = 0.1001 | 818.814 | 814.76 | 810.658 | 806.519 | 802.334 | 1235.7 | 1218.8 | 1202 | 1185.4 | 1169
x1 = 0.1558 | 825.901 | 821.803 | 817.667 | 813.493 | 809.279 | 1241.5 | 1224.8 | 1208 | 1191.3 | 1174.7
x1 = 0.2031 | 831.228 | 827.109 | 822.949 | 818.753 | 814.513 | 1246.3 | 1229.3 | 1212.5 | 1195.7 | 1179.1
x1 = 0.2532 | 836.415 | 832.273 | 828.091 | 823.867 | 819.599 | 1250.7 | 1233.6 | 1216.8 | 1199.8 | 1183.1
x1 = 0.3033 | 841.124 | 836.955 | 832.749 | 828.501 | 824.211 | 1254.6 | 1237.5 | 1220.5 | 1203.5 | 1186.7
x1 = 0.4046 | 849.477 | 845.264 | 841.013 | 836.72 | 832.382 | 1261.2 | 1243.9 | 1226.8 | 1209.6 | 1192.7
x1 = 0.5048 | 856.464 | 852.232 | 847.934 | 843.623 | 839.27 | 1266.3 | 1248.9 | 1231.7 | 1214.4 | 1197.2
x1 = 0.6055 | 862.441 | 858.152 | 853.82 | 849.452 | 845.054 | 1270.3 | 1252.9 | 1235.6 | 1218.2 | 1201
x1 = 0.7052 | 867.521 | 863.197 | 858.839 | 854.443 | 850.006 | 1273.2 | 1255.7 | 1238.4 | 1221.1 | 1203.8
x1 = 0.807 | 872.037 | 867.684 | 863.298 | 858.874 | 854.415 | 1275.7 | 1258.3 | 1240.8 | 1223.4 | 1206.2
x1 = 0.8546 | 873.936 | 869.566 | 865.165 | 860.735 | 856.272 | 1276.8 | 1259.3 | 1241.8 | 1224.2 | 1206.6
x1 = 0.9041 | 875.766 | 871.424 | 867.019 | 862.582 | 858.113 | 1277.7 | 1260.2 | 1242.6 | 1225 | 1207.4
x1 = 0.9537 | 877.527 | 873.128 | 868.704 | 864.265 | 859.772 | 1278.5 | 1260.8 | 1243.2 | 1225.6 | 1208.1
x1 = 1 | 879.031 | 874.632 | 870.204 | 865.737 | 861.241 | 1279 | 1260.9 | 1242.9 | 1224.9 | 1207
